According to ChEMBL document CHEMBL4619727, “Induced osteoblast differentiation by amide derivatives of stilbene: The possible osteogenic agents” (Bioorg Med Chem Lett, 2020):
Activity calls are given as the source filed them. The rule behind the calls is not given here.

What was measured:
MCF7 = assay: Cytotoxicity against human MCF7 cells assessed as cell growth inhibition at 30 ug/ml by MTT assay relative to control; assay type: functional; details: read-out: GI
[1] = target: Estrogen receptor beta (Mus musculus) (UniProt O08537); assay: Induction of ESR2-mediated osteoblast differentiation in mouse calvarial osteoblast assessed as increase in ALP activity at 100 pM measured after 48 hrs by spectrophotometric analysis; assay type: cell-based
Sequence of Estrogen receptor beta (Mus musculus) (O08537 whole entry): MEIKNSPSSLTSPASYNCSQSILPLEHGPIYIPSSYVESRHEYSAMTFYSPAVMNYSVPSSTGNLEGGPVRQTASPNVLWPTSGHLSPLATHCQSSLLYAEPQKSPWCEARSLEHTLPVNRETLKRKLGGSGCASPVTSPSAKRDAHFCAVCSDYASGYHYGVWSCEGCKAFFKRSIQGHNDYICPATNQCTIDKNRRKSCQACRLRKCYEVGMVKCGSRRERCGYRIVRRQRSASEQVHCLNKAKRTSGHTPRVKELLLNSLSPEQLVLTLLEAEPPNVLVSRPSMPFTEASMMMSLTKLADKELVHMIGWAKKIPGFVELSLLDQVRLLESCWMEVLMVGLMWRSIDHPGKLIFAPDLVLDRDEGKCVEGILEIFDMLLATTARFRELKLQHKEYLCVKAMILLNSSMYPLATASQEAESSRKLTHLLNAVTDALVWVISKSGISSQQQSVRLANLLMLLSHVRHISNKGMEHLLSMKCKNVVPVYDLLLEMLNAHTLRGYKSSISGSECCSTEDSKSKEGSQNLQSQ

[2] = target: Estrogen receptor beta (Mus musculus) (UniProt O08537); assay: Induction of ESR2-mediated osteoblast differentiation in mouse calvarial osteoblast assessed as increase in ALP activity at 1 pM measured after 48 hrs by spectrophotometric analysis; assay type: cell-based
Mus musculus [3] = assay: Anti-osteoporosis activity in ovariectomized BALB/c mouse assessed as increase in femur bone volume density at 1 mg/kg, po via gavage administered for 1 month by microCT imaging analysis; assay type: functional, organism-based
Mus musculus [4] = assay: Anti-osteoporosis activity in ovariectomized BALB/c mouse assessed as increase in trabecular number in femur bone at 1 mg/kg, po via gavage administered for 1 month by microCT imaging analysis; assay type: functional, organism-based
Mus musculus [5] = assay: Anti-osteoporosis activity in ovariectomized BALB/c mouse assessed as increase in trabecular thickness in femur bone at 1 mg/kg, po via gavage administered for 1 month by microCT imaging analysis; assay type: functional, organism-based
Mus musculus [6] = assay: Anti-osteoporosis activity in ovariectomized BALB/c mouse assessed as reduction in trabecular spacing in femur bone at 1 mg/kg, po via gavage administered for 1 month by microCT imaging analysis; assay type: functional, organism-based
Mus musculus [7] = assay: Anti-osteoporosis activity in ovariectomized BALB/c mouse assessed as reduction in trabecular pattern factor in femur bone at 1 mg/kg, po via gavage administered for 1 month by microCT imaging analysis; assay type: functional, organism-based
Calvarial osteoblast [8] = assay: Osteo-blastogenic activity in mouse calvarial osteoblast assessed as upregulation of BMP2 mRNA expression at 1 pM to 100 pM measured after 48 hrs by qPCR analysis; assay type: functional, cell-based
Calvarial osteoblast [9] = assay: Upregulation of ALP mRNA expression in mouse calvarial osteoblast at 1 pM to 100 pM measured after 24 to 48 hrs by qPCR analysis; assay type: functional, cell-based
Calvarial osteoblast [10] = assay: Osteo-blastogenic activity in mouse calvarial osteoblast assessed as upregulation of Runx2 mRNA expression at 1 pM to 100 pM measured after 48 hrs by qPCR analysis; assay type: functional, cell-based
[11] = target: Estrogen receptor beta (Mus musculus) (UniProt O08537); assay: Induction of ESR2-mediated osteoblast differentiation in mouse calvarial osteoblast assessed as formation of mineralized nodule at 1 to 10 uM measured after 21 days by alizarin red staining based assay; assay type: cell-based
Mus musculus [12] = assay: Anti-osteoporosis activity in ovariectomized BALB/c mouse assessed as increase in femur bone volume density at 1 to 5 mg/kg, po via gavage administered for 1 month by microCT imaging analysis; assay type: functional, organism-based
Mus musculus [13] = assay: Anti-osteoporosis activity in ovariectomized BALB/c mouse assessed as increase in trabecular number in femur bone at 1 to 5 mg/kg, po via gavage administered for 1 month by microCT imaging analysis; assay type: functional, organism-based
Mus musculus [14] = assay: Anti-osteoporosis activity in ovariectomized BALB/c mouse assessed as increase in trabecular thickness in femur bone at 1 to 5 mg/kg, po via gavage administered for 1 month by microCT imaging analysis; assay type: functional, organism-based
Mus musculus [15] = assay: Anti-osteoporosis activity in ovariectomized BALB/c mouse assessed as reduction in trabecular spacing in femur bone at 1 to 5 mg/kg, po via gavage administered for 1 month by microCT imaging analysis; assay type: functional, organism-based
Mus musculus [16] = assay: Anti-osteoporosis activity in ovariectomized BALB/c mouse assessed as reduction in trabecular pattern factor in femur bone at 1 to 5 mg/kg, po via gavage administered for 1 month by microCT imaging analysis; assay type: functional, organism-based
Mus musculus [17] = assay: Anti-osteoporosis activity in ovariectomized BALB/c mouse at 5 mg/kg, po via gavage administered for 1 month by microCT imaging analysis; assay type: functional, organism-based
Calvarial osteoblast [18] = assay: Upregulation of ESR1 protein level in mouse calvarial osteoblast at 1 to 100 pM measured after 48 hrs by Western blot analysis; assay type: functional, cell-based
Calvarial osteoblast [19] = assay: Upregulation of ESR2 protein level in mouse calvarial osteoblast at 1 to 100 pM measured after 48 hrs by Western blot analysis; assay type: functional, cell-based
[20] = system: Peritoneal macrophage cell; assay: Cytotoxicity against peritoneal macrophage cells (unknown origin) at 5 to 20 uM by MTT assay; assay type: cell-based
[21] = target: Estrogen receptor beta (Mus musculus) (UniProt O08537); assay: Induction of ESR2-mediated osteoblast differentiation in mouse calvarial osteoblast assessed as increase in ALP activity at 1 nM measured after 48 hrs by spectrophotometric analysis; assay type: cell-based

COc1ccc(/C(C)=C(\CCCCCC(=O)NCCc2ccccn2)c2ccccc2)cc1
inhibition of growth at 30 µg/mL (MCF7): 30 to 48%

COc1ccc(/C(=C/c2ccccc2)CC(=O)NC(C)C)cc1
inhibition of growth at 30 µg/mL (MCF7): 30 to 48%

COc1ccc(/C(C)=C(\CCCC(=O)NCCc2ccccn2)c2ccccc2)cc1
Activity [1]: Active

COc1ccc(/C(C)=C(\CCCCCC(=O)N2CCCC2)c2ccccc2)cc1
Activity [2]: Active
inhibition of growth at 30 µg/mL (MCF7): 30 to 48%

COc1ccc(/C(=C/c2ccccc2)CC(=O)NCCc2ccccn2)cc1
inhibition of growth at 30 µg/mL (MCF7): 30 to 48%

COc1ccc(/C(C)=C(\CCCC(=O)NCc2ccccn2)c2ccccc2)cc1
inhibition of growth at 30 µg/mL (MCF7): 30 to 48%

O=C(c1ccc(OCCN2CCCCC2)cc1)c1c(-c2ccc(O)cc2)sc2cc(O)ccc12
Activity (Mus musculus [3]): Active
Activity (Mus musculus [4]): Active
Activity (Mus musculus [5]): Active
Activity (Mus musculus [6]): Active
Activity (Mus musculus [7]): Active

CCCCCN(C)C(=O)C/C(=C\c1ccccc1)c1ccc(OC)cc1
Activity [2]: Active
inhibition of growth at 30 µg/mL (MCF7): 30 to 48%

COc1ccc(/C(=C/c2ccccc2)CC(=O)N2CCCC2)cc1
inhibition of growth at 30 µg/mL (MCF7): 30 to 48%

CCCCN(C)C(=O)CCCCC/C(=C(/C)c1ccc(OC)cc1)c1ccccc1
Activity (Calvarial osteoblast [8]): Active
Activity [2]: Active
Activity (Calvarial osteoblast [9]): Active
Activity (Calvarial osteoblast [10]): Active
Activity [11]: Active
Activity (Mus musculus [12]): Active
Activity (Mus musculus [13]): Active
Activity (Mus musculus [14]): Active
Activity (Mus musculus [15]): Active
Activity (Mus musculus [16]): Active
Activity (Mus musculus [17]): Active
Activity (Calvarial osteoblast [18]): Active
Activity (Calvarial osteoblast [19]): Active
inhibition of growth at 30 µg/mL (MCF7): 32.1%
Activity [20]: Non-Toxic

COc1ccc(/C(C)=C(\CCCC(=O)N2CCCC2)c2ccccc2)cc1
inhibition of growth at 30 µg/mL (MCF7): 48.4%

COc1ccc(/C(=C/c2ccccc2)CC(=O)N(C(C)C)C(C)C)cc1
Activity [21]: Active

CCCCN(C)C(=O)CCC/C(=C(/C)c1ccc(OC)cc1)c1ccccc1
Activity [2]: Active

COc1ccc(/C(C)=C(\CCCCCC(=O)NCc2ccccn2)c2ccccc2)cc1
inhibition of growth at 30 µg/mL (MCF7): 30 to 48%
